Experimental data published in the NIST ThermoML archive (doi:10.1021/acs.jced.8b00590).

Conditions: Liquid; for vapor or sublimation pressure: Ebulliometric method (Recirculating still); for mass density / viscosity: 101.3 kPa; for mass density: Vibrating tube method; for viscosity: Falling or rolling sphere viscometry

Clc1ccccc1Cl [1,2-dichlorobenzene]
Conditions | vapor or sublimation pressure [kPa]
360.41 K | 4.86
377.35 K | 9.95
388.41 K | 14.98
396.96 K | 20.04
403.4 K | 24.99
408.91 K | 30
414.16 K | 35.02
418.75 K | 40.02
422.87 K | 45.05
429.99 K | 55.03
433.29 K | 59.97
438.87 K | 69.93
443.92 K | 79.98
448.94 K | 90.2
451.11 K | 95.11
452.62 K | 98.36

CCCCC#N [pentanenitrile]
Conditions | mass density [kg/m3] | vapor or sublimation pressure [kPa] | viscosity [mPa·s]
283.15 K | 807.7 | – | –
293.15 K | 799.1 | – | 0.7191
303.15 K | 790.4 | – | –
313.15 K | 781.7 | – | 0.5654
323.15 K | 772.9 | – | –
329.35 K | – | 5 | –
333.15 K | 764.2 | – | 0.4567
344.89 K | – | 9.9 | –
345.13 K | – | 10 | –
362.77 K | – | 20 | –
374.08 K | – | 30 | –
386.22 K | – | 45 | –
395.4 K | – | 60 | –
407.76 K | – | 86.4 | –
411.12 K | – | 95 | –
412.96 K | – | 100 | –
